Measurements taken from paper PMC10180076, “Novel Biologically Active N-Substituted Benzimidazole Derived Schiff Bases: Design, Synthesis, and Biological Evaluation” (Molecules, 2023).

Experiments:
LN-229, glioblastoma = test: Proliferation assay (MTS, 72 h), LN-229; assay type: cell-based, human; settings: Homo sapiens, LN-229
Excerpt: (§1) Human cancer cells used in this manuscript, namely Capan-1, HCT-116, NCI-H460, LN-229, HL-60, K-562, and Z-138, were acquired from the American Type Culture Collection (ATCC, Manassas, VA, USA), while the DND-41 cell line was purchased from the Deutsche Sammlung von Mikroorganismen und Zellkulturen (DSMZ Leibniz-Institut, Braunschweig, Germany). Culture media were purchased from Gibco Life Technologies, Merelbeke, Belgium, and supplemented with 10% fetal bovine serum (HyClone, Cytiva, Marlborough, MA, USA). Vincristine and docetaxel, which were used as the reference inhibitors, were purchased from Selleckchem (Munich, Germany). Stock solutions were prepared in DMSO.
(§2) Adherent cell lines LN-229, HCT-116, and NCI-H460 and Capan-1 cells were seeded at a density between 500 and 1500 cells per well, in 384-well tissue culture plates (Greiner, Kremsmünster, Austria). After overnight incubation, the cells were treated with seven different concentrations of the test compounds, ranging from 100 to 0.006 µM.
(§3) Suspension cell lines HL-60, K-562, Z-138, and DND-41 were seeded at densities ranging from 2500 to 5500 cells per well in 384-well culture plates containing the test compounds at the same concentration points. The cells were incubated for 72 h with the compounds and were then analyzed using the CellTiter 96® AQueous One Solution Cell Proliferation Assay (MTS) reagent (Promega, Madison, WI, USA) according to the manufacturer’s instructions. […] The compounds were tested in two independent experiments.

[1] = system: Capan-1, pancreatic adenocarcinoma; test: Proliferation assay (MTS, 72 h), Capan-1; assay type: cell-based, human; settings: Homo sapiens, CAPAN-1
Excerpt: as §1, §2, §3

[2] = system: HCT-116, colorectal carcinoma; test: Proliferation assay (MTS, 72 h), HCT-116; assay type: cell-based, human; settings: Homo sapiens, HCT-116
Excerpt: as §1, §2, §3

NCI-H460, lung carcinoma = test: Proliferation assay (MTS, 72 h), NCI-H460; assay type: cell-based, human; settings: Homo sapiens, NCI-H460
Excerpt: as §1, §2, §3

[3] = system: DND-41, acute lymphoblastic leukemia; test: Proliferation assay (MTS, 72 h), DND-41; assay type: cell-based, human; settings: Homo sapiens, DND41
Excerpt: as §1, §2, §3

[4] = system: HL-60, acute myeloid leukemia; test: Proliferation assay (MTS, 72 h), HL-60; assay type: cell-based, human; settings: Homo sapiens, HL-60
Excerpt: as §1, §2, §3

[5] = system: K-562, chronic myeloid leukemia; test: Proliferation assay (MTS, 72 h), K-562; assay type: cell-based, human; settings: Homo sapiens, K562
Excerpt: as §1, §2, §3

[6] = system: Z-138, non-Hodgkin lymphoma; test: Proliferation assay (MTS, 72 h), Z-138; assay type: cell-based, human; settings: Homo sapiens, Z-138
Excerpt: as §1, §2, §3

[7] = system: human coronavirus HCoV-229E; test: organism not typed; assay type: cell-based; settings: HEL 299 cells, 100 CCID50, MTS; read-out: Antiviral Activity (EC50/μM) HCoV 229E HEL 299
[8] = system: human coronavirus HCoV-OC43; test: microbe, parasite or virus in culture; assay type: cell-based; settings: Betacoronavirus 1, OC43; HEL 299 cells, 100 CCID50, MTS; read-out: Antiviral Activity (EC50/μM) HCoV OC43 HEL 299
[9] = system: human coronavirus HCoV-NL63; test: Antiviral CPE reduction assay, HCoV-NL63 in Huh-7; assay type: cell-based; settings: Huh-7 cells, 100 CCID50, MTS
[10] = system: respiratory syncytial virus A (Long); test: Antiviral CPE reduction assay, RSV A in HEL 299; assay type: cell-based; settings: human respiratory syncytial virus; HEL 299 cells, 100 CCID50, MTS
[11] = system: yellow fever virus (YFV 17D); test: microbe, parasite or virus in culture; assay type: cell-based; settings: Huh-7, read-out: Antiviral Activity (EC50/μM) YFV 17D Huh-7
Zika virus (Mr776) = test: Antiviral CPE reduction assay, Zika virus in Huh-7; assay type: cell-based; settings: Huh-7 cells, 100 CCID50, MTS
sindbis virus = test: Antiviral CPE reduction assay, Sindbis virus in Huh-7; assay type: cell-based; settings: Huh-7 cells, 100 CCID50, MTS
in vitro [12] = settings: human
in vitro [13] = settings: human; remark: listed apart in the source
[14] = system: influenza A/H1N1 (A/Ned/378/05); test: Antiviral CPE reduction assay, influenza A/H1N1 in MDCK; assay type: cell-based; settings: Influenza A virus, MDCK cells, 100 CCID50, MTS
[15] = system: influenza A/H3N2 (A/HK/7/87); test: Antiviral CPE reduction assay, influenza A/H3N2 in MDCK; assay type: cell-based; settings: Influenza A virus, MDCK cells, 100 CCID50, MTS
[16] = system: influenza B (B/Ned/537/05); test: Antiviral CPE reduction assay, influenza B in MDCK; assay type: cell-based; settings: Influenza B virus; MDCK cells, 100 CCID50, MTS
in vitro [17] = settings: dog

| SMILES | IC50 (LN-229, glioblastoma) [µM] | IC50 [1] [µM] | IC50 [2] [µM] | IC50 (NCI-H460, lung carcinoma) [µM] | IC50 [3] [µM] | IC50 [4] [µM] | IC50 [5] [µM] | IC50 [6] [µM] | melting point [°C] | EC50 [14] [µM] | EC50 [15] [µM] | EC50 [16] [µM] | CC50 (in vitro [17]) [µM] | also measured |
| --- | --- | --- | --- | --- | --- | --- | --- | --- | --- | --- | --- | --- | --- | --- |
| CN(C)c1ccc(/C=N/c2nc3ccc(C#N)cc3n2-c2ccccc2)cc1 [Compound 39, (E)-2-((4-(Dimethylamino)benzylidene)amino)-1-phenyl-1H-benzo[d]imidazole-6-carbonitrile] | > 100 | > 100 | > 100 | > 100 | > 100 | > 100 | > 100 | > 100 | 247 to 251 |  |  |  |  |  |
| CCCCCCn1c(/N=C/c2ccc(N(C)C)cc2)nc2ccc(C#N)cc21 [Compound 43, (E)-2-((4-(Dimethylamino)benzylidene)amino)-1-hexyl-1H-benzo[d]imidazole-6-carbonitrile] | > 100 | > 100 | > 100 | 91.6 | > 100 | 33.5 | > 100 | > 100 | 165 to 170 |  |  |  |  |  |
| CCCCCCn1c(/N=C/c2ccc(N(CC)CC)cc2O)nc2ccccc21 [Compound 44, (E)-5-(Diethylamino)-2-(((1-hexyl-1H-benzo[d]imidazol-2-yl)imino)methyl)phenol] | > 100 | > 100 | > 100 | > 100 | > 100 | 83.9 | > 100 | > 100 | 201 to 204 |  |  |  |  |  |
| CCCCCCn1c(/N=C/c2ccc(N(CC)CC)cc2O)nc2ccc(C#N)cc21 [Compound 45, (E)-2-((4-(Diethylamino)-2-hydroxybenzylidene)amino)-1-hexyl-1H-benzo[d]imidazole-6-carbonitrile] | > 100 | > 100 | > 100 | > 100 | > 100 | > 100 | > 100 | > 100 |  |  |  |  |  |  |
| COc1cc([C@@H]2c3cc4c(cc3[C@@H](O[C@@H]3O[C@@H]5CO[C@@H](C)O[C@H]5[C@H](O)[C@H]3O)[C@H]3COC(=O)[C@H]23)OCO4)cc(OC)c1O [ETP, etoposide, reference compound] | 2.4 | 0.43 | 1.45 | 3.65 | 2.8 | 0.42 | 1.77 | 0.85 |  |  |  |  |  |  |
| COC(=O)Nc1nc2ccc(C(=O)c3cccs3)cc2[nH]1 [NZO, nocodazole, reference compound] | 0.29 | 0.1 | 0.13 | 0.25 | 0.47 | 0.1 | 0.07 | 0.31 |  |  |  |  |  |  |
| CCC(CC)COC(=O)[C@H](C)N[P@](=O)(OC[C@H]1O[C@@](C#N)(c2ccc3c(N)ncnn23)[C@H](O)[C@@H]1O)Oc1ccccc1 [Remdesivir, remdesivir, reference compound] |  |  |  |  |  |  |  |  |  |  |  |  |  | EC50 [7]: 0.06 µM; EC50 [8]: 0.06 µM; EC50 [9]: 0.03 µM; EC50 [10]: 0.03 µM; EC50 [11]: 6.2 µM; EC50 (Zika virus (Mr776)): 0.7 µM; EC50 (sindbis virus): > 10 µM; CC50 (in vitro [12]): > 10 µM; CC50 (in vitro [13]): > 10 µM |
| NC(=O)c1ncn([C@@H]2O[C@H](CO)[C@@H](O)[C@H]2O)n1 [Ribavirin, ribavirin, reference compound] |  |  |  |  |  |  |  |  |  | 10.5 | 4 | 2.8 | 67 | EC50 [7]: 82.6 µM; EC50 [9]: > 250 µM; EC50 [10]: 10.8 µM; EC50 [11]: > 250 µM; EC50 (Zika virus (Mr776)): > 250 µM; EC50 (sindbis virus): 148 µM |
| CC(N)C12CC3CC(CC(C3)C1)C2 (stereo not drawn) [Rimantadine, rimantadine, reference compound] |  |  |  |  |  |  |  |  |  | 5 | 0.05 | > 100 | > 100 |  |
| CC(=O)N[C@H]1[C@H]([C@H](O)[C@H](O)CO)OC(C(=O)O)=C[C@@H]1N=C(N)N [Zanamivir, zanamivir, reference compound] |  |  |  |  |  |  |  |  |  | 0.1 | 16.8 | 0.05 | > 100 |  |
